Measurements: patent US9504752B2, “Sterilizer, oral cavity sterilizer, sterilization method, sterilization apparatus, and sterilizer evaluation method” (AZ CO., LTD., priority 2011, dated 2016)

Test system: Streptococcus aureus
Assay: Sterilization effect of hydrogen peroxide photolysis (laser 400±20 nm) with catalase activity inhibitor, viable count on BHI agar
Format: cell-based
Conditions: only hydrogen peroxide, no laser, no scutellaria, H(+)L(−)O(−); FIG. 4
Procedure: An experiment for examining an effect of the catalase activity inhibitor of enhancing a sterilization effect was conducted. In the experiment, […] which is a catalase-positive bacterium was used as a target of the sterilization. A bacterium suspension having a concentration of 10^7 cells/mL was prepared by using the bacterium and saline, and the suspension was used for the experiment. A semiconductor laser (product name: […] Experiment samples were prepared by using scutellaria as the catalase activity inhibitor, diluting the scutellaria with ultrapure water, followed by sterilization by filtration through a 0.22 μm filter, and then adding the scutellaria solution to the mixture liquids of bacterium suspension and hydrogen peroxide to attain final scutellaria concentrations of 0, 1, and 3 mg/mL. [table] The laser irradiation was performed immediately after preparing the experiment samples, and 50 μL of the sample after the irradiation and 50 μL of 5000 U/mL catalase were mixed to stop the reaction of hydrogen peroxide. After that, a 10-fold dilution series was prepared and was seeded on a BHI agar culture medium, followed by culturing under an aerophilic condition of 37° C. for 24 hours, and then evaluation of the sterilization effect was conducted. […]

For `OO` [hydrogen peroxide], the sterilization effect was “no sterilization effect”.
